Results: patent US6818612B2, “Use of parvovirus capsid particles in the inhibition of cell proliferation and migration” (priority 1998, dated 2004)

Columns and labels:
adult bone marrow cells = experiment: Colony formation assay on adult bone marrow cells; type: cell-based, human; conditions: for Colony Counts (% of medium control) BFU-E / Colony Counts (% of medium control) CFU-GEMM / Colony Counts (% of medium control) CFU-GM: Bone marrow cells, 11 day culture
Text: (§1) A commercial kit—the “Stem cell CFU kit” (GIBCO BRL, Life Technology Inc., NY, USA)—was used to perform the colony formation assays. The kit provides a semi-solid support that mimics the extracellular matrix produced by stromal cells. Other components included in the kit are: Iscove's modified Dulbecco's medium, modified fetal bovine serum, methylcellulose, 2-mercaptoethanol, conditioned medium and erythropoietin. The colonies that were formed in the assay were identified as BFU-E (burst forming unit-erythroid cells) with densely packed hemoglobonized cells, CFU-GM (colony forming units-granulocytes, macrophages) with arrangements of non-hemoglobinized cells, and CFU-GEMM (colony forming units-granulocytes, erythroid cells, macrophages, megakaryocytes) with hemoglobinized cells and small and large peripheral cells.
(§2) Recombinant B19 parvovirus empty capsid particles (Kajigaya et al., Proc Natl Acad Sci USA, 88:4646 (1991)) were prepared in a recombinant baculovirus-insect cell (Spodofera frugiperda) expression system. (Kajigaya et al., Proc Natl Acad Sci USA, 88:4646 (1991)). The isolated or purified capsids were diluted in buffer (20 mM Tris, 0.5M NaCl, pH 8.5) and 30 μL of each dilution was added to approximately 25×10^3 cells (50×10^3 for postnatal cells) in 100 μL of culture medium and incubated for 1 hour at 4° C. The mixtures were then transferred to incubation dishes and culture medium was added to a final volume of 0.5 ml per well. The cells were then incubated for 11 days in a humidified atmosphere at 5% CO2, and were scored for BFU-E, CFU-GM and CFU-GEMM derived colony formation.
(§3) The inhibitory effect of B19 parvovirus capsids on colony formation was also tested using fresh stem cells derived from cord blood and adult bone marrow samples. Colony formation assays in the presence of B19 parvovirus capsids were performed on cells obtained from umbilical cord blood and bone marrow using the protocol described above. Umbilical cord blood samples were obtained immediately after vaginal delivery from normal births. Samples of adult bone marrow were obtained from healthy allogeneic donors. Suspensions of fresh cells were heparinized and diluted in 0.9% NaCl and separated on Lymphoprep (Nycomed, Parma, Oslo, Norway) for gradient centrifugation at 2000 rpm for 20 min. Cells were carefully removed with a Pasteur pipette, washed three times in 0.9% NaCl, counted and diluted in culture medium in preparation for the colony formation assays.

[1] = test system: umbilical cord blood cells; experiment: Colony formation assay on cord blood cells; type: cell-based, human; conditions: for Colony Counts (% of medium control) BFU-E / Colony Counts (% of medium control) CFU-GEMM / Colony Counts (% of medium control) CFU-GM: Cord blood cells, 11 day culture
Text: as §1, §2, §3

[2] = test system: hematopoietic cells obtained from the bone marrow of monkeys; experiment: Colony formation assay on monkey bone marrow cells (Baboon); type: cell-based; conditions: FIG. 2, varying concentrations of capsid
Method: (§4) Additionally, colony formation assays in the presence of B19 parvovirus […] were performed, as described above, using hematopoietic cells obtained from the bone marrow of monkeys (Baboons and Macaques).

[3] = test system: hematopoietic cells obtained from the bone marrow of monkeys; experiment: Colony formation assay on monkey bone marrow cells (Macaque); type: cell-based; conditions: FIG. 2, varying concentrations of capsid
Method: as §4

human fetal liver cells = experiment: Colony formation assay (Stem cell CFU kit, 11 day) of fetal liver cells; type: cell-based
Text: In a first set of experiments, it was discovered that B19 parvovirus capsids inhibit hematopoiesis and that these molecules could be used to reduce the overproduction of red blood cells, white blood cells, and blood platelets, as is experienced by patients suffering from hematological proliferative diseases, such as Polycytemia Vera. (See FIG. 1A). In a first set of experiments, fresh human fetal liver cells, umbilical cord blood cells, and bone marrow cells were contacted with recombinant B19 parvovirus capsids in a colony formation assay. The general features of a colony formation assay are depicted in FIG. 1B. The ability of the B19 parvovirus capsids to inhibit hematopoiesis was verified by the reduction of colony formation in the presence of the capsids, as compared to untreated control populations of cells. A more detailed description of these experiments is provided below.
To obtain fetal liver tissue, human fetuses 6-12 weeks of gestational age were obtained from legal abortions; the patients had volunteered to donate fetal tissue. Gestational age was estimated according to specific anatomical markers and is given as menstruational age. Abortions were performed with vacuum aspirations. Fetal liver was dissected under sterile conditions, placed in a sterile tube containing RPMI1640 and disintegrated by passage through a vinyl mesh to form a single cell suspension. Nucleated cells were then washed three times, counted and diluted in culture medium.
as §1, §2

[4] = B19 parvovirus capsid 0.0007 μg/ml
[5] = B19 parvovirus capsid 0.007 μg/ml
[6] = B19 parvovirus capsid 0.07 μg/ml
[7] = B19 parvovirus capsid 0.7 μg/ml
[8] = B19 parvovirus capsid 7.0 μg/ml
[9] = compared with fetal liver cells
[10] = capsid only, B19 parvovirus capsid 0.14 μg/ml, fetal liver cells, 11 day culture
[11] = capsid only, B19 parvovirus capsid 7 μg/ml, fetal liver cells, 11 day culture
[12] = fetal liver cells, 0.07 μg/ml VP1/2 capsid, FIG. 3
[13] = fetal liver cells, B19 parvovirus capsid 0.007 μg/ml, 11 day culture
[14] = fetal liver cells, B19 parvovirus capsid 0.7 μg/ml, 11 day culture
[15] = fetal liver cells, B19 parvovirus capsid 70.0 μg/ml, pre-incubated prior to 11 day culture

“B19 parvovirus capsid: Recombinant empty B19 parvovirus capsid particles (95% VP2, 5% VP1) from a baculovirus-insect cell expression system” was tested, and the “Colony Counts (% of medium control) BFU-E” value (adult bone marrow cells; [4]) was 86% of medium control, the “Colony Counts (% of medium control) CFU-GEMM” value (adult bone marrow cells; [4]) was 78% of medium control and the “Colony Counts (% of medium control) CFU-GM” value (adult bone marrow cells; [4]) was 77% of medium control. The “Colony Counts (% of medium control) BFU-E” value (adult bone marrow cells; [5]) was 76% of medium control, the “Colony Counts (% of medium control) CFU-GEMM” value (adult bone marrow cells; [5]) was 78% of medium control and the “Colony Counts (% of medium control) CFU-GM” value (adult bone marrow cells; [5]) was 80% of medium control. For the same substance, the “Colony Counts (% of medium control) BFU-E” value (adult bone marrow cells; [6]) was 63% of medium control, the “Colony Counts (% of medium control) CFU-GEMM” value (adult bone marrow cells; [6]) was 44% of medium control and the “Colony Counts (% of medium control) CFU-GM” value (adult bone marrow cells; [6]) was 41% of medium control. For the same substance, the “Colony Counts (% of medium control) BFU-E” value (adult bone marrow cells; [7]) was 43% of medium control, the “Colony Counts (% of medium control) CFU-GEMM” value (adult bone marrow cells; [7]) was 28% of medium control and the “Colony Counts (% of medium control) CFU-GM” value (adult bone marrow cells; [7]) was 45% of medium control. The “Colony Counts (% of medium control) BFU-E” value (adult bone marrow cells; [8]) was 18% of medium control, the “Colony Counts (% of medium control) CFU-GEMM” value (adult bone marrow cells; [8]) was 6% of medium control and the “Colony Counts (% of medium control) CFU-GM” value (adult bone marrow cells; [8]) was 36% of medium control. The “ability to inhibit hematopoietic cells obtained from bone marrow” value (adult bone marrow cells; [9]) was “comparable to that exhibited with fetal liver cells”, the “Colony Counts (% of medium control) BFU-E” value [1, 4] was 84% of medium control and the “Colony Counts (% of medium control) CFU-GEMM” value [1, 4] was 93% of medium control. The “Colony Counts (% of medium control) CFU-GM” value [1, 4] was 79% of medium control, the “Colony Counts (% of medium control) BFU-E” value [1, 5] was 57% of medium control and the “Colony Counts (% of medium control) CFU-GEMM” value [1, 5] was 70% of medium control. The “Colony Counts (% of medium control) CFU-GM” value [1, 5] was 67% of medium control, the “Colony Counts (% of medium control) BFU-E” value [1, 6] was 49% of medium control and the “Colony Counts (% of medium control) CFU-GEMM” value [1, 6] was 50% of medium control. For the same substance, the “Colony Counts (% of medium control) CFU-GM” value [1, 6] was 72% of medium control, the “Colony Counts (% of medium control) BFU-E” value [1, 7] was 33% of medium control and the “Colony Counts (% of medium control) CFU-GEMM” value [1, 7] was 43% of medium control. The “Colony Counts (% of medium control) CFU-GM” value [1, 7] was 62% of medium control, the “Colony Counts (% of medium control) BFU-E” value [1, 8] was 10% of medium control and the “Colony Counts (% of medium control) CFU-GEMM” value [1, 8] was 43% of medium control. For the same substance, the “Colony Counts (% of medium control) CFU-GM” value [1, 8] was 54% of medium control, the “growth of cells obtained from human cord blood” value ([1]; FIG. 1C, varying concentrations of capsid) was “decreased as the concentration of B19 parvovirus capsid increased” and the “ability to inhibit hematopoietic cells obtained from cord blood” value [1, 9] was “comparable to that exhibited with fetal liver cells”. The “primate hematopoietic cell growth” value [2] was “decreased in concordance with an increase in concentration of B19 parvovirus capsid”, the “primate hematopoietic cell growth” value [3] was “decreased in concordance with an increase in concentration of B19 parvovirus capsid” and the “inhibition of fetal liver cell colony formation” value (human fetal liver cells; B19 parvovirus capsids 0.14 μg/ml, in the absence of sera) was “significantly inhibited”. For the same substance, the “Colony Counts (% of medium control) BFU-E” value (human fetal liver cells; [10]) was 18% of medium control, the “Colony Counts (% of medium control) CFU-GEMM” value (human fetal liver cells; [10]) was 63% of medium control and the “Colony Counts (% of medium control) CFU-GM” value (human fetal liver cells; [10]) was 17% of medium control. For the same substance, the “Colony Counts (% of medium control) BFU-E” value (human fetal liver cells; [11]) was 43% of medium control, the “Colony Counts (% of medium control) CFU-GEMM” value (human fetal liver cells; [11]) was 21% of medium control and the “Colony Counts (% of medium control) CFU-GM” value (human fetal liver cells; [11]) was 30% of medium control. The “colony formation, % of the medium control” value (human fetal liver cells; [12]) was ~60 % of the medium control, the “inhibition of colony formation” value (human fetal liver cells; [12]) was “approximately 40%” and the “inhibition of colony formation of hematopoietic cells” value (human fetal liver cells; fetal liver cells, 70.0 μg/ml B19 parvovirus capsid) was “considerable inhibition”. For the same substance, the “lowest concentration at which inhibition of colony formation of hematopoietic cells was seen” value (human fetal liver cells; fetal liver cells, 11 day colony formation assay, 'as little as' / 'as low as') was 0.007 µg/mL, the “Colony Counts (% of medium control) BFU-E” value (human fetal liver cells; [13]) was 79% of medium control and the “Colony Counts (% of medium control) CFU-GEMM” value (human fetal liver cells; [13]) was 94% of medium control. For the same substance, the “Colony Counts (% of medium control) CFU-GM” value (human fetal liver cells; [13]) was 95% of medium control, the “Colony Counts (% of medium control) BFU-E” value (human fetal liver cells; [14]) was 39% of medium control and the “Colony Counts (% of medium control) CFU-GEMM” value (human fetal liver cells; [14]) was 63% of medium control. The “Colony Counts (% of medium control) CFU-GM” value (human fetal liver cells; [14]) was 54% of medium control, the “Colony Counts (% of medium control) BFU-E” value (human fetal liver cells; [15]) was 22% of medium control and the “Colony Counts (% of medium control) CFU-GEMM” value (human fetal liver cells; [15]) was 31% of medium control. For the same substance, the “Colony Counts (% of medium control) CFU-GM” value (human fetal liver cells; [15]) was 14% of medium control.
